Structures can show the parent of a compound that is named as a salt. Where two headings read alike, the source gives them in different places.
What was measured:
[1] = molecular target: T1, purine nucleoside phosphorylase (PNP-4) (Homo sapiens, UniProt P00491); test: purine nucleoside phosphorylase (PNP-4) enzyme assay, radiochemical, formation of [14C]-hypoxanthine from [14C]inosine; assay type: biochemical; conditions: erythrocyte enzyme; [14C]inosine substrate
T1 construct: using hyman erythrocyte as the enzyme source; from tissue; host or cells: human erythrocytes
T1 sequence (P00491 1-289): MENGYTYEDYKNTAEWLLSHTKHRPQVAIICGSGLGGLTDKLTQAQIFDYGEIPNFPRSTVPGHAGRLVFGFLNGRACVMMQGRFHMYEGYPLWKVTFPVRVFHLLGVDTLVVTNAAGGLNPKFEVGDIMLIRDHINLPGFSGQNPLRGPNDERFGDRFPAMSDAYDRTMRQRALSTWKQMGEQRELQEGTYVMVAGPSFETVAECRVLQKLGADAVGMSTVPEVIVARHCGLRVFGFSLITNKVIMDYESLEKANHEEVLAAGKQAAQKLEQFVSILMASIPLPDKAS

[2] = tested on: T-Cell; test: HTBA-1 T-cell cytotoxicity in the presence of 2'-deoxyguanosine; assay type: cell-based; conditions: read-out: HTBA-1 T-Cell +dGuo (10 μM) IC50

Row | SMILES | IC50 [1] | IC50 ([2]; +dGuo (10 μM)) | IC50 [2]
1 | Cc1ccsc1Cn1c(N)nc2c(=O)[nH]c(N)nc21 [Example 9d, 8-Amino-9-[(3-methyl-2-thienyl)methyl]guanine] | 4050 nM | 8.6 µM | –
2 | Cc1cc(Cn2c(N)nc3c(=O)[nH]c(N)nc32)cs1 [Example 16Ak] | 630 nM | 2.8 µM | –
3 | Cc1sccc1Cn1c(N)nc2c(=O)[nH]c(N)nc21 [Example 16Ad] | 1720 nM | 18.2 µM | –
4 | Nc1nc2c(nc(N)n2CCc2cccs2)c(=O)[nH]1 [Example 16Ac] | 6250 nM | 17.6 µM | –
5 | Nc1nc2c(nc(N)n2Cc2csc3ccccc23)c(=O)[nH]1 [Example 9e, 8-Amino-9-[(benzo[b]thien-3-yl)methyl]guanine] | 140000 nM | – | –
6 | Nc1nc2c(nc(N)n2Cc2cc3ccccc3s2)c(=O)[nH]1 [Example 16Ag] | 8450 nM | > 12.5 µM | –
7 | Nc1nc2c(nc(N)n2Cc2ccsc2)c(=O)[nH]1 [Example 9c, 8-Amino-9-[(3-thienyl)methyl]guanine, monohydrochloride, monohydrate] | 85 nM | 0.49 µM | –
8 | CCc1ccc(Cn2cnc3c(=O)[nH]c(N)nc32)s1 [Example 3, 9-[(5-Ethyl-2-thienyl)methyl]guanine] | 930 nM | 4.15 µM | –
9 | Nc1nc2c(nc(N)n2Cc2cccs2)c(=O)[nH]1 [2 or 9a] | 170 nM | – | 0.83 µM
10 | Nc1nc2c(nc(N)n2Cc2ccco2)c(=O)[nH]1 [Example 9b, 8-Amino-9-(2-furanylmethyl)guanine monohydrochloride] | 250 nM | – | 2.57 µM
11 | Nc1nc2c(nc(N)n2Cc2ccccn2)c(=O)[nH]1 [Example 16Af] | 4600 nM | – | –
12 | Nc1nc2c(ncn2Cc2cccnc2)c(=O)[nH]1 [Example 1, 9-[(3-Pyridinyl)methyl]guanine] | 21900 nM | 54.1 µM | –

— patent US4772606A, “Purine derivatives” (Warner-Lambert Company, priority 1985, dated 1988)
